Where two headings read alike, the source gives them in different places.
How the values were obtained:
[1] = system: human peripheral blood mononuclear cell (PBMC) derived monocytes; assay: Endotoxin-induced TNF production in monocyte/fibroblast cultures (ELISA); type: cell-based; details: LPS 1 ug/ml, FIG. 5
Procedure: Hydroxychloroquine (Sigma Aldrich) was diluted at the concentrations indicated. Levels of tumor necrosis factor (TNF) were assessed by ELISA.

neutrophils = details: cited from earlier work; for neutrophil apoptosis: 100 ng/mL
healthy rats = details: 500 ng intra-tracheally; within 5 hours; versus saline-treated control rats; cited from earlier work

Row | Molecule | production of TNF-alpha from macrophages [1] | neutrophil apoptosis (neutrophils; at 4-8 h) | neutrophil apoptosis (neutrophils; at 24 h) | levels of IL-8 (neutrophils; PMN cultured for 24 h) | lung lavage neutrophils (healthy rats) | lung leak (healthy rats) | lung myeloperoxidase (MPO) activity (healthy rats)
1 | CCN(CCO)CCCC(C)Nc1ccnc2cc(Cl)ccc12 (stereo not shown) [hydroxychloroquine] | suppressed production of TNF-alpha | – | – | – | – | – | –
2 | TNF-alpha | – | increased | markedly suppressed | markedly increased | substantially higher | substantially higher | substantially higher
